Data on 2 compounds can be found in patent publication US11142533B2, “Macrocycles for use in treating disease” (TURNING POINT THERAPEUTICS, INC., priority 2019, dated 2021).

For data set [1], the target named is Ba/F3 cell-derived tumors with the EML4-ALK L1196M/G1202R fusion (Homo sapiens, UniProt Q9UM73, G1202R/L1196M).
In data set [2] the target is KM12 (TPM3-TRKA) (Homo sapiens, UniProt P04629). The data set can be described thus: Cell proliferation assay (CellTiter-Glo). For orientation: Cellular ATP, detected with luciferase, serves as a proxy for viable cell number.
The target in data set [3] is T1, ALK fusion protein in Ba/F3 cell-derived xenograft tumors with the EML4-ALK L1196M/G1202R fusion (Homo sapiens, UniProt Q9UM73, G1202R/L1196M).
T1 construct: expressed in transfected cells; host or cells: Ba/F3 cells (lentiviral transduction), implanted subcutaneously in SCID/Beige mice; the other entry of the earlier key: EML4 (Q9HC35, Echinoderm microtubule-associated protein-like 4)
The data set can be described thus: In vivo pharmacodynamic study, tumor immunoblotting. Details: species or system mice. Particulars: for ALK phosphorylation level compared to control: 0.6, 2, or 5 mg/kg. The protocol:
Mice bearing xenograft tumors were humanely euthanized and tumors were resected and snap frozen in liquid nitrogen and stored at −80° C. Frozen tumor samples were processed at 4° C. in 1× Cell Lysis Buffer (Cell Signaling Technologies) to extract proteins. SDS loading samples were prepared by addition of 4×LDS Sample Buffer and 10× Reducing Reagent (Life Technologies, Inc) to protein lysate. Tumor SDS protein samples were processed by SDS-PAGE and immunoblotted with rabbit anti-phosphorylated ALK Y1282/1283, rabbit anti-phosphorylated ALK Y1604, rabbit anti-ALK and mouse anti-actin antibodies (Cell Signaling Technologies). The signals from immunoblot were detected by C-DiGit Blot Scanner from LI-COR and the signal intensity were quantified using the Image Studio Digit software (LI-COR).
As the control, the expression level of actin was not affected by Compound 1 treatment.

In data set [4] the target is T2, ALK (E1210K/S1206C) (Homo sapiens, UniProt Q9UM73, E1210K/S1206C).
T2 construct: purchased Reaction Biology Corporation (contract assay)
The data set can be described thus: Biochemical kinase assay (Reaction Biology). The following applies: 10 μM ATP.

The target in data set [5] is T3, ALK (R1275Q) (Homo sapiens, UniProt Q9UM73, R1275Q).
T3 construct: purchased Reaction Biology Corporation (contract assay)
The data set can be described thus: Biochemical kinase assay (Reaction Biology). The following applies: 10 μM ATP.

For data set [6], the target named is T4, ALK (T1151M) (Homo sapiens, UniProt Q9UM73, T1151M).
T4 construct: purchased Reaction Biology Corporation (assay run there)
The data set can be described thus: Biochemical kinase assay (Reaction Biology). Particulars: 10 μM ATP.

The target of data set [7] is T5, ALK (D1203N) (Homo sapiens, UniProt Q9UM73, D1203N).
T5 construct: purchased Reaction Biology Corporation (contract assay)
Nature of the data set: Biochemical kinase assay (Reaction Biology). The following applies: 10 μM ATP.

Data set [8] concerns the target T6, ALK (T1151-L1152insT) (Homo sapiens, UniProt Q9UM73, INS1151T).
T6 construct: purchased Reaction Biology Corporation (contract assay)
The data set can be described thus: Biochemical kinase assay (Reaction Biology). The following applies: 10 μM ATP.

Data set [9] concerns the target T7, ALK (G1202R) (Homo sapiens, UniProt Q9UM73, G1202R).
T7 construct: purchased Reaction Biology Corporation (contract assay)
Nature of the data set: Biochemical kinase assay (Reaction Biology). Particulars: 10 μM ATP.

The target of data set [10] is T8, ALK (F1174L) (Homo sapiens, UniProt Q9UM73, F1174L).
T8 construct: purchased Reaction Biology Corporation (contract assay)
The data set can be described thus: Biochemical kinase assay (Reaction Biology). Particulars: 10 μM ATP.

For data set [11], the target named is T9, ALK (C1156Y) (Homo sapiens, UniProt Q9UM73, C1156Y).
T9 construct: purchased Reaction Biology Corporation (contract assay)
Nature of the data set: Biochemical kinase assay (Reaction Biology). The following applies: 10 μM ATP.

For data set [12], the target named is T10, ALK (L1198F) (Homo sapiens, UniProt Q9UM73, L1198F).
T10 construct: purchased Reaction Biology Corporation (contract assay)
Nature of the data set: Biochemical kinase assay (Reaction Biology). Particulars: 10 μM ATP.

Data set [13] has as its target T11, ALK (L1198F/G1202R) (Homo sapiens, UniProt Q9UM73, G1202R/L1198F).
T11 construct: purchased Reaction Biology Corporation (contract assay)
Nature of the data set: Biochemical kinase assay (Reaction Biology). Particulars: 10 μM ATP.

Data set [14] concerns the target T12, ALK (L1152P) (Homo sapiens, UniProt Q9UM73, L1152P).
T12 construct: purchased Reaction Biology Corporation (contract assay)
The data set can be described thus: Biochemical kinase assay (Reaction Biology). The following applies: 10 μM ATP.

Data set [15] has as its target T13, ALK (delete G1202) (Homo sapiens, UniProt Q9UM73, DEL1202-1202).
T13 construct: purchased Reaction Biology Corporation (contract assay)
Nature of the data set: Biochemical kinase assay (Reaction Biology). The following applies: 10 μM ATP.

The target in data set [16] is T14, ALK (I1171N) (Homo sapiens, UniProt Q9UM73, I1171N).
T14 construct: purchased Reaction Biology Corporation (contract assay)
Nature of the data set: Biochemical kinase assay (Reaction Biology). Particulars: 10 μM ATP.

The target of data set [17] is T15, ALK (L1198F/L1196M) (Homo sapiens, UniProt Q9UM73, L1196M/L1198F).
T15 construct: purchased Reaction Biology Corporation (contract assay)
Nature of the data set: Biochemical kinase assay (Reaction Biology). Particulars: 10 μM ATP.

For data set [18], the target named is T16, ALK (F1174S) (Homo sapiens, UniProt Q9UM73, F1174S).
T16 construct: purchased Reaction Biology Corporation (contract assay)
The data set can be described thus: Biochemical kinase assay (Reaction Biology). Particulars: 10 μM ATP.

Data set [19] has as its target T17, ALK (E1210K/D1203N) (Homo sapiens, UniProt Q9UM73, D1203N/E1210K).
T17 construct: purchased Reaction Biology Corporation (contract assay)
The data set can be described thus: Biochemical kinase assay (Reaction Biology). The following applies: 10 μM ATP.

In data set [20] the target is T18, ALK (V1180L) (Homo sapiens, UniProt Q9UM73, V1180L).
T18 construct: purchased Reaction Biology Corporation (assay run there)
The data set can be described thus: Biochemical kinase assay (Reaction Biology). The following applies: 10 μM ATP.

The target of data set [21] is T19, ALK (S1206R) (Homo sapiens, UniProt Q9UM73, S1206R).
T19 construct: purchased Reaction Biology Corporation (contract assay)
Nature of the data set: Biochemical kinase assay (Reaction Biology). Particulars: 10 μM ATP.

Data set [22] addresses T20, ALK (G1269S) (Homo sapiens, UniProt Q9UM73, G1269S).
T20 construct: purchased Reaction Biology Corporation (contract assay)
The data set can be described thus: Biochemical kinase assay (Reaction Biology). Particulars: 10 μM ATP.

Data set [23] has as its target T21, ALK (Homo sapiens, UniProt Q9UM73).
T21 construct: purchased Reaction Biology Corporation (contract assay)
Nature of the data set: Biochemical kinase assay (Reaction Biology). Particulars: 10 μM ATP.

Data set [24] concerns the target T22, ALK (L1196M) (Homo sapiens, UniProt Q9UM73, L1196M).
T22 construct: purchased Reaction Biology Corporation (contract assay)
Nature of the data set: Biochemical kinase assay (Reaction Biology). The following applies: 10 μM ATP.

For data set [25], the target named is T23, ALK (F1245C) (Homo sapiens, UniProt Q9UM73, F1245C).
T23 construct: purchased Reaction Biology Corporation (contract assay)
Nature of the data set: Biochemical kinase assay (Reaction Biology). The following applies: 10 μM ATP.

The target of data set [26] is T24, ALK (E1210K) (Homo sapiens, UniProt Q9UM73, E1210K).
T24 construct: purchased Reaction Biology Corporation (contract assay)
The data set can be described thus: Biochemical kinase assay (Reaction Biology). The following applies: 10 μM ATP.

The target in data set [27] is T25, ALK (L1152R) (Homo sapiens, UniProt Q9UM73, L1152R).
T25 construct: purchased Reaction Biology Corporation (contract assay)
The data set can be described thus: Biochemical kinase assay (Reaction Biology). Particulars: 10 μM ATP.

For data set [28], the target named is T26, ALK (F1174C) (Homo sapiens, UniProt Q9UM73, F1174C).
T26 construct: purchased Reaction Biology Corporation (contract assay)
The data set can be described thus: Biochemical kinase assay (Reaction Biology). The following applies: 10 μM ATP.

The mark [29] stands for this setting: single oral dose 10 mg/kg, 2 hours post dose, tumor immunoblot, 10 mg/kg.

Entries after “also recorded” stand apart in the source; their conditions may differ. Like-named read-outs stand apart in the source and are kept apart here. Bounds are passed on as bounds.

As usually defined, the IC50 is the concentration at which inhibition is half-maximal. High values mean a need for much substance, low ones inhibition by little substance. For `CC1(C)COc2ccc(F)cc2CN2c3nc4c(cnn4cc3OC[C@H]2C(F)F)C(=O)N1` [Compound 1, (4S)-4-(Difluoromethyl)-8-fluoro-13,13-dimethyl-3,4,13,14-tetrahydro-6H-18,1-(metheno)[1,4]oxazino[3,4-i]pyrazolo[4,3-f][1,4,8,10]benzoxatriazacyclotridecin-15(12H)-one], the “Tumor growth inhibition (TGI)” value in data set [1] (0.6 mg/kg BID, after 7 days of treatment) is 19%; in data set [1] (2 mg/kg BID, after 7 days of treatment), 44%; in data set [1] (5 mg/kg BID, after 7 days of treatment), 83%; in data set [1] (10 mg/kg BID, after 7 days of treatment), 200%. Also, the body weight entry in data set [1] (2, 5, 10 mg/kg BID, after 7 days of treatment) is given as “no body weight loss”. Moreover, the “tumor growth compared with vehicle treated group” value in data set [1] (Compound 1 0.6 mg/kg BID or lorlatinib 5 mg/kg BID, day 14, p>0.05) was “not significantly different”. This compound came in with an IC50 in data set [2] of less than 200 pM. The “ALK phosphorylation level compared to control” value in data set [3] (at 12 hours) was “only showed reduction at 12 hours at the highest dose”; in data set [3] (each dose, at 2 hours) it was “significantly reduced”. For the same compound, the “level of ALK fusion expression vs vehicle” value in [3] (setting [29]) was “reduction; also recorded: reduced”. For the same compound, in data set [3] (setting [29]), the “level of phosphorylation of ALK fusions at Y1282/1283 vs vehicle” value was “inhibition of phosphorylation; also recorded: reduced”. Also, the “level of phosphorylation of ALK fusions at Y1604 vs vehicle” value in data set [3] (setting [29]) was “inhibition of phosphorylation; also recorded: reduced”.

Consider `O=C1NCC2(CC2)COc2ccc(F)cc2CN2c3nc4c1cnn4cc3OC[C@H]2C(F)F` [Compound 2, (16′S)-16′-(Difluoromethyl)-12′-fluoro-4′H,5′H,6′H,8′H,14′H,16′H,17′H-spiro[cyclopropane-1,7′-[1,19](metheno)[1,4]oxazino[3,4-j]pyrazolo[4,3-g][1,5,9,11]benzoxatriazacyclotetradecin]-4′-one], for which the IC50 amounted to 130 pM in [4]; 720 pM in [5]; 280 pM in data set [6]; 2900 pM in data set [7]; 860 pM in [8]; 740 pM in data set [9]. Further, the IC50 turned out to be 420 pM in data set [10]; 110 pM in data set [11]; 850 pM in data set [12]; 490 pM in data set [13]; 1960 pM in [14]; 450 pM in [15]. The 50% inhibitory concentration (IC50) is 1160 pM in data set [16]; 100 pM in [17]; 760 pM in [18]; 4000 pM in data set [19]; 510 pM in data set [20]; 310 pM in data set [21]. For the same compound, the IC50 was 6140 pM in [22]; 1400 pM in data set [23]; less than 200 pM in data set [2]; 180 pM in data set [24]; 410 pM in data set [25]; 210 pM in data set [26]. The IC50 came out at 830 pM in data set [27] and 920 pM in [28].
